Results taken from ChEMBL document CHEMBL1143446, “Azaflavones compared to flavones as ligands to the benzodiazepine binding site of brain GABA(A) receptors” (Bioorg Med Chem Lett, 2008).

Legend:
[1] = biological target: GABA-A receptor; alpha-1/beta-3/gamma-2 (Rattus norvegicus); test: Displacement of [3H]flumazenil in rat GABAA alpha-1-beta-3-gamma-2 receptor expressed in HEK293 cells
[2] = biological target: Gamma-aminobutyric acid receptor subunit alpha-3 (Rattus norvegicus, UniProt P18508+P20236+P63079); test: Displacement of [3H]flumazenil in rat GABAA alpha-3-beta-3-gamma-2 receptor expressed in HEK293 cells; assay type: cell-based
Sequence of Gamma-aminobutyric acid receptor subunit alpha-3 (P20236 whole entry, one chain of several): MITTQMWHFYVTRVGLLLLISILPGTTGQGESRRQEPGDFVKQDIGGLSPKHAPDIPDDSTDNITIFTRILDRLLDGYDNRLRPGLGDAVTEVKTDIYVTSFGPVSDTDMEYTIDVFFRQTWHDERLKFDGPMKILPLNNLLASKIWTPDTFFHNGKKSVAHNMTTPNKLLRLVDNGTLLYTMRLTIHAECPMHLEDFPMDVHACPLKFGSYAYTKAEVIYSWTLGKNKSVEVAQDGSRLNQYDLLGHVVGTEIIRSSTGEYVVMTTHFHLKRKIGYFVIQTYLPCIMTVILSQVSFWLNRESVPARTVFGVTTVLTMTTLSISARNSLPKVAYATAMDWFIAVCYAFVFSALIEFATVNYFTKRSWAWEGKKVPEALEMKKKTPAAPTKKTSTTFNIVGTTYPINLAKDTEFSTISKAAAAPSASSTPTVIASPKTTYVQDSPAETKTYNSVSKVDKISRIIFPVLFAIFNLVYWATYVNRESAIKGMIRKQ

[3] = biological target: GABA-A receptor; alpha-2/beta-3/gamma-2 (Rattus norvegicus); test: Displacement of [3H]flumazenil in rat GABAA alpha-2-beta-3-gamma-2 receptor expressed in HEK293 cells
Rattus norvegicus [4] = species on record: Rattus norvegicus; test: Selectivity ratio of Ki for rat GABAA alpha-3-beta-3-gamma-2 receptor to Ki for GABAA alpha-1-beta-3-gamma-2 receptor
[5] = Displacement of [3H]flumazenil from GABAA in rat cortical tissue
Rattus norvegicus [6] = species on record: Rattus norvegicus; test: Selectivity ratio of Ki for rat GABAA alpha-2-beta-3-gamma-2 receptor to Ki for GABAA alpha-1-beta-3-gamma-2 receptor
[7] = biological target: GABA A receptor alpha-5/beta-3/gamma-2 (Rattus norvegicus, UniProt P18508+P19969+P63079); test: Displacement of [3H]flumazenil in rat GABAA alpha-5-beta-3-gamma-2 receptor expressed in HEK293 cells; assay type: cell-based
Sequence of GABA A receptor alpha-5/beta-3/gamma-2 (P18508 whole entry): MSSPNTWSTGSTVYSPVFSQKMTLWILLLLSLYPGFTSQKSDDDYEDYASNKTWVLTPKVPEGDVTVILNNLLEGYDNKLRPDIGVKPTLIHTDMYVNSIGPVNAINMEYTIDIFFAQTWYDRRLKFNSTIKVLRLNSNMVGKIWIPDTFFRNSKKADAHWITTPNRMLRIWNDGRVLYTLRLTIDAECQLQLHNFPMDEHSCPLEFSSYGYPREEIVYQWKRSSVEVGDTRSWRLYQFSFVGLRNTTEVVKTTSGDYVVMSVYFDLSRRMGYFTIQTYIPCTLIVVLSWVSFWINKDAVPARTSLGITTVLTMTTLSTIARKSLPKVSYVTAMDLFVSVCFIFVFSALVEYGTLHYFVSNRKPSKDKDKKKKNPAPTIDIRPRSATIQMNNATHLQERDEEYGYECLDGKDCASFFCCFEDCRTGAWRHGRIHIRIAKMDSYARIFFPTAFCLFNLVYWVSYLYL
Sequence of GABA A receptor alpha-5/beta-3/gamma-2 (P19969 whole entry): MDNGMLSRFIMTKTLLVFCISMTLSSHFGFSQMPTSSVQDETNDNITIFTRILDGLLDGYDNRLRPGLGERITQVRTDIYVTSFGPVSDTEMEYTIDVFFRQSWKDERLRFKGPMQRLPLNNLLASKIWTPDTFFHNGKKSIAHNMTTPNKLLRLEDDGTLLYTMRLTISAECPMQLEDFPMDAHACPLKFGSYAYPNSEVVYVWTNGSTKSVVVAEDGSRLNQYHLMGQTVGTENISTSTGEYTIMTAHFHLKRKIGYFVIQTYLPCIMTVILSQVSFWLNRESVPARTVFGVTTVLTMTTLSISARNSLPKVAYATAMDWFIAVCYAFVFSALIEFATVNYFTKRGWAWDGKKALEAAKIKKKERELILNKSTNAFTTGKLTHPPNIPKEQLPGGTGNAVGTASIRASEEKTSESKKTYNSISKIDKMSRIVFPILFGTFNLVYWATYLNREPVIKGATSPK
Sequence of GABA A receptor alpha-5/beta-3/gamma-2 (P63079 whole entry): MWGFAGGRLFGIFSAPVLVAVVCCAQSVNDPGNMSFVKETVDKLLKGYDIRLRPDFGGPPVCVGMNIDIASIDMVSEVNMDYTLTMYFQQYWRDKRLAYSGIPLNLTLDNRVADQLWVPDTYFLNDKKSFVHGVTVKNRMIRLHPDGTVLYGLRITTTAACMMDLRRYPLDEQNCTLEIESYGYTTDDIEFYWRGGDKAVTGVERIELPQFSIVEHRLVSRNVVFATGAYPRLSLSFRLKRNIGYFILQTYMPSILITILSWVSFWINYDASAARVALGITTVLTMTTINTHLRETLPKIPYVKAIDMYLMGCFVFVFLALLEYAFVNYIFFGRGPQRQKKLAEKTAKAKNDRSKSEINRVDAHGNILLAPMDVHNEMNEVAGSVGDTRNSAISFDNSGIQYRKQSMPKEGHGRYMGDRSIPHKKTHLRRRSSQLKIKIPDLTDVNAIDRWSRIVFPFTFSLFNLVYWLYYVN

Molecule `Cc1ccc2nc(-c3cc(Br)ccc3O)cc(O)c2c1` has a Ki [1] of 39 nM, a Ki [2] of 99 nM and a Ki [3] of 120 nM.

For `Cc1ccc2c(c1)c(=O)cc(-c1cc(Br)ccc1O)n2C`, the Selectivity ratio (Rattus norvegicus [4]) was 8, the Ki [5] was 1100 nM and the Selectivity ratio (Rattus norvegicus [6]) was 5.

With `COc1ccc(Br)cc1-c1cc(=O)c2cc(C)ccc2o1` the Ki [5] was over 1500 nM.

With `Cc1ccc2nc(-c3cc(Br)ccc3O)cc(N3CCOCC3)c2c1` the Ki [5] was 840 nM.

`COc1ccc(Br)cc1-c1cc(=O)c2cc(C)ccc2[nH]1` gave a Ki [5] of 730 nM.

Molecule `Cc1ccc2oc(-c3cc(Cc4ccccc4)ccc3O)cc(=O)c2c1` has a Ki [5] of 0.6 nM, a Ki [1] of 0.8 nM and a Ki [7] of 2.4 nM. For the same molecule, the Ki [2] was 11 nM and the Ki [3] was 19 nM.

Molecule `Cc1ccc2oc(-c3cc(Br)ccc3O)cc(=O)c2c1` has a Selectivity ratio (Rattus norvegicus [4]) of 8, a Ki [5] of 0.9 nM and a Selectivity ratio (Rattus norvegicus [6]) of 5.

`CCc1ccc2oc(-c3ccccc3)cc(=O)c2c1` gave a Ki [5] of 180 nM.

In the case of `Cc1ccc2[nH]c(-c3cc(Br)ccc3O)cc(=O)c2c1`, the Selectivity ratio (Rattus norvegicus [4]) is reported as 8, the Ki [5] is reported as 22 nM and the Selectivity ratio (Rattus norvegicus [6]) is reported as 5.

`Cc1ccc2nc(-c3cc(Cc4ccccc4)ccc3O)cc(N3CCOCC3)c2c1` gave a Ki [5] of 400 nM.

With `CCc1ccc2[nH]c(-c3ccccc3)cc(=O)c2c1` the Ki [5] was 1200 nM.

In the case of `Cc1ccc2[nH]c(-c3cc(Cc4ccccc4)ccc3O)cc(=O)c2c1`, the Selectivity ratio (Rattus norvegicus [4]) is reported as 8, the Ki [5] is reported as 2 nM and the Ki [1] is reported as 1.2 nM. For the same molecule, the Ki [7] was 7.3 nM, the Ki [2] was 31 nM and the Selectivity ratio (Rattus norvegicus [6]) was 5. The Ki [3] was 18 nM.
